# Key:
# P. mirabilis = experiment: Susceptibility of intraoperative culture isolate, P. mirabilis (case 1); assay type: cell-based, Proteus mirabilis; settings: case 1 intraoperative culture
# Protocol: (§1) Case 1: A patient (102.5 kg, creatinine clearance of 71 mL/min based on a 6-hour urine collection) developed a polymicrobial implant-associated spinal infection (IASI) after Th9-L3 spondylodesis and laminectomy at Th12. […] Surgical debridement was performed before dalbavancin therapy.
# (§2) Intravenous vancomycin and ceftriaxone were initiated to treat S. aureus, P. mirabilis, and E. faecium. S. aureus was susceptible to both agents, P. mirabilis to ceftriaxone, and E. faecium to vancomycin. After 1 week, ceftriaxone was switched to oral ciprofloxacin.
# S. aureus [1] = experiment: Susceptibility of intraoperative culture isolate, S. aureus (case 1); assay type: cell-based, Staphylococcus aureus; settings: case 1 intraoperative culture
# Protocol: as §1, §2
# [2] = long half-life; cited from earlier work
# S. aureus [3] = settings: in vivo; cited from earlier work
# Excerpt: (§3) The Clinical and Laboratory Standards Institute has defined a tentative susceptibility breakpoint o ...
# E. faecium [4] = settings: Clinical and Laboratory Standards Institute; cited from earlier work
# Excerpt: as §3
# [5] = tested on: implant-associated spinal infection (IASI); experiment: Clinical outcome and tolerability in patients with implant-associated spinal infection
# Protocol: The total duration of the antimicrobial treatment was 12 weeks. Creatinine levels remained stable.
# Symptoms resolved within 2.5 hours after 1-mg oral clemastine (antihistamine) and was discharged.
# [6] = Dalbavancin plasma concentrations by LC-MS/MS (TDM, case 1); assay type: in vivo, human
# Excerpt: Background: Implant-associated spinal infections (IASI) pose challenges for outpatient management due to the need for frequent intravenous antibiotic administration. […] One patient received therapeutic drug monitoring (TDM)-guided dosing, while the other was managed with fixed-interval dosing. […] Both patients successfully completed therapy without recurrence of the infection during follow-up. […] Further research is required to establish standardized therapeutic drug monitoring protocols for the management of IASI.
# The second 1500 mg dose followed on day 8, with TDM on days 22 and 28.
# E. faecium [7] = experiment: Susceptibility of intraoperative culture isolate, E. faecium (case 1); assay type: cell-based, Enterococcus faecium; settings: case 1 intraoperative culture
# Protocol: as §1, §2
SMILES,susceptibility of P. mirabilis (P. mirabilis),susceptibility of S. aureus (S. aureus [1]),half-life [2] [h],trough concentration corresponding to the ƒAUC24/MIC target (S. aureus [3]) [µg/mL],tentative susceptibility breakpoint (E. faecium [4]) [mg/L],"infection recurrence at follow-up ([5]; both patients (case 1 TDM-guided three doses, case 2 fixed-interval four doses of 1500 mg))","blood, renal, and liver tests ([5]; case 2)","adverse reaction after the final dose ([5]; case 2, 85 kg, 4 off-label 1500-mg doses every 2 weeks without TDM)","severity of reaction ([5]; case 2, possibly due to the infusion)","trough concentration before the third dalbavancin infusion ([6]; case 1, 102.5 kg, CrCl 71 mL/min, after 1500 mg doses on day 1 and day 8, single patient) [mg/L]","peak plasma concentration after the third dalbavancin infusion ([6]; case 1, third 1500-mg dose on day 44, single patient) [mg/L]",susceptibility of E. faecium (E. faecium [7])
CO/N=C(\C(=O)N[C@@H]1C(=O)N2C(C(=O)O)=C(CSc3nc(=O)c(=O)[nH]n3C)CS[C@H]12)c1csc(N)n1 [ceftriaxone],susceptible,susceptible,,,,,,,,,,
CN[C@H]1C(=O)N[C@@H]2Cc3ccc(cc3)Oc3cc4cc(c3O[C@@H]3O[C@H](C(=O)O)[C@@H](O)[C@H](O)[C@H]3NC(=O)CCCCCCCCC(C)C)Oc3ccc(cc3Cl)[C@@H](O)[C@@H]3NC(=O)[C@H](NC(=O)[C@@H]4NC(=O)[C@@H](NC2=O)c2cc(cc(O)c2Cl)Oc2cc1ccc2O)c1ccc(O)c(c1)-c1c(O[C@H]2O[C@H](CO)[C@@H](O)[C@H](O)[C@@H]2O)cc(O)cc1[C@@H](C(=O)NCCCN(C)C)NC3=O [dalbavancin],,,147 to 258,≥ 8,0.25,without infection recurrence up to 8 months after therapy,remained normal,"nausea, vomited once, and had a painful, itchy, erythematous, and swollen face",moderate reaction,10.3,301.8,
CN[C@H](CC(C)C)C(=O)N[C@H]1C(=O)N[C@@H](CC(N)=O)C(=O)N[C@H]2C(=O)N[C@H]3C(=O)N[C@H](C(=O)N[C@H](C(=O)O)c4cc(O)cc(O)c4-c4cc3ccc4O)[C@H](O)c3ccc(c(Cl)c3)Oc3cc2cc(c3O[C@@H]2O[C@H](CO)[C@@H](O)[C@H](O)[C@H]2O[C@H]2C[C@](C)(N)[C@H](O)[C@H](C)O2)Oc2ccc(cc2Cl)[C@H]1O [vancomycin],,susceptible,,,,,,,,,,susceptible

# From paper PMC12588666 (Therapeutic Drug Monitoring, 2025)
